This passage reports IC50 results from patent publication US11077100B2, “Tetrahydroquinoline derivatives as P2X7 receptor antagonists” (RaQualia Pharma Inc., priority 2017, dated 2021).

For this experiment, the target named is human P2X7 (Homo sapiens (Human), UniProt Q99572). The experiment can be described thus: Human P2X7 functional assay (Ca2+ influx, Fluo-4, FDSS). It counts as cell-based. The note with it: antagonistic activity with respect to the human P2X7 receptor; BzATP final concentration 80 microM. The method, then: The ability of the 5,6,7,8-tetrahydroquinoline and 6,7-dihydro-5H-cyclopenta[b]pyridine derivatives of the formula (I) to inhibit the P2X7 channel was measured by Ca^2+ influx assay and electrophysiology assay described below.
Chain of human P2X7 (Q99572 whole entry): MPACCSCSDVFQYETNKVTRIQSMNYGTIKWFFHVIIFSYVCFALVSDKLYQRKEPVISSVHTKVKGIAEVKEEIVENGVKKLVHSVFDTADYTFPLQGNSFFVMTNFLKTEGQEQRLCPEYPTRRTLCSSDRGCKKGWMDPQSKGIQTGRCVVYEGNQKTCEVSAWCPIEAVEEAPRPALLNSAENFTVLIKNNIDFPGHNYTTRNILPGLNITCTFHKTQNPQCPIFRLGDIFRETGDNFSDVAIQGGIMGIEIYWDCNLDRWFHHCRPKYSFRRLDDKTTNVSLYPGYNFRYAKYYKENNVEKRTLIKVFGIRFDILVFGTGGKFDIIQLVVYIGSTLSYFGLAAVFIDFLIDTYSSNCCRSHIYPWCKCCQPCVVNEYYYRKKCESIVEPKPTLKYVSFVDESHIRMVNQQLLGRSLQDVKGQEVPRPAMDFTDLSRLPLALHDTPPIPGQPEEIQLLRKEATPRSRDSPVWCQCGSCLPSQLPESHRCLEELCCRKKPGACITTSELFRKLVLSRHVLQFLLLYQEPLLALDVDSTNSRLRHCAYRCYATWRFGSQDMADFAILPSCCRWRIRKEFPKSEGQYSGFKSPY
Human P2X7 Functional Assay
The functional activity of compounds was determined by measuring changes in intracellular calcium concentration using a Ca^2+-sensitive fluorescent dye, Fluo-4 (Molecular Probes). The changes in fluorescent signal were monitored by the cell imaging technology by Hamamatsu Photonics's Functional Drug Screening System (FDSS). Increases in intracellular Ca^2+ concentration were readily detected upon activation with BzATP.
HEK293 cells stably expressing human P2X7 (GenBank accession number BC011913) carrying a C-terminal FLAG tag were grown in T225 flasks, in a 5% CO2 humidified incubator to about 80% confluence. Media composition consisted of Dulbecco's Modified Eagle Medium (high glucose), 10% fetal bovine serum ([…]), 100 units/[…] Penicillin, 100 microg/mL Streptomycin and 250 microg/mL Geneticine.
1. Plate-out HEK293-human P2X7 cells (40 microL medium containing 10,000 cells per well) into poly-D-lysine coated 384-well plates (Corning) at 24 h prior to assay.
2. Incubate at 37° C. in 5% CO2.
3. Incubate the plate at 37° C. in 5% CO2 for 1 h.
5. Test compounds were prepared at 100× the test concentration in DMSO by serial dilution with Biomek-FX liquid handling instrument. 33× diluted compound solutions in assay buffer were prepared in intermediate compound plate with Biomek-NX liquid handling instrument. A further 3× dilution occurred in below steps 6 and 7.
6. Add 20 microL of 33× diluted compound solutions into each well and leave the plate for 10 min under the dark at room temperature.
7. Measure activity by FDSS as follows: • Set the assay plate on the stacker of FDSS. • Start the detection of fluorescence intensity at 540 nm by 480 nm exicitation. • After 30 seconds, add 20 microL of assay buffer containing 240 microM BzATP (final concentration 80 microM).
IC50 values for compounds of the present invention were determined from 7-point dose-response studies. Curves were generated using the average of duplicate wells for each data point. Finally, the IC50 values are calculated with the best-fit dose curve determined by XLfit (ID Business Solutions Ltd.).
Broadly, the IC50 is the concentration that gives 50% inhibition. Low readings indicate higher potency, high ones lower potency. Take `C[C@@H](NC(=O)[C@]1(F)CC[C@@H](O)c2ncccc21)c1ccc(Cl)cc1Cl` [Example 119, (5S-8R)-N-((R)-1-(2,4-dichlorophenyl)ethyl)-5-fluoro-8-hydroxy-5,6,7,8-tetrahydroquinoline-5-carboxamide]: the IC50 is < 50 nM.
Next, `O=C(NCc1c(F)cc(Cl)cc1Cl)[C@@H]1CC[C@@H](O)c2ncccc21` [Example 91, (5R,8R)-N-(2,4-dichloro-6-fluorobenzyl)-8-hy-droxy-5,6,7,8-tetrahydro-quinoline-5-carboxamide]: 101 to 300 nM; `O=C(NCc1ccc(Cl)c(Cl)c1)[C@]1(F)CC[C@H](O)c2ncccc21` [Example 197, (5S,8S)-N-(3,4-dichlorobenzyl)-5-fluoro-8-hydroxy-5,6,7,8-tetrahydroquinoline-5-carboxamide]: < 50 nM; `Cc1ccc(CNC(=O)[C@@]2(F)CC[C@@H](O)c3ncccc32)c(Cl)c1` [Example 166, (5R,8R)-N-(2-chloro-4-methylbenzyl)-5-fluoro-8-hydroxy-5,6,7,8-tetrahydroquinoline-5-carboxamide]: 101 to 300 nM.
Turning to `Cc1cc(Cl)cc(Cl)c1CNC(=O)[C@@]1(F)CC[C@H](O)c2ncccc21` [Example 99, (5R,8S)-N-(2,4-dichloro-6-methylbenzyl)-5-fluoro-8-hydroxy-5,6,7,8-tetrahydroquinoline-5-carboxamide], the IC50 is < 50 nM.
Take `O=C(NCc1cc(F)ccc1Cl)[C@]1(F)CC[C@H](O)c2ncccc21` [Example 204, (5S,8S)-N-(2-chloro-5-fluorobenzyl)-5-fluoro-8-hydroxy-5,6,7,8-tetrahydroquinoline-5-carboxamide]: the IC50 was in the range of 50 to 100 nM.
Then `O=C(NCc1c(F)cccc1F)[C@]1(F)CC[C@H](O)c2ncccc21` [Example 217, (5S,8S)-N-(2,6-difluorobenzyl)-5-fluoro-8-hydroxy-5,6,7,8-tetrahydroquinoline-5-carboxamide], with 101 to 300 nM.
Turning to `O=C(NCCOc1ccccc1)[C@]1(F)CC[C@H](O)c2ncccc21` [Example 228, (5S,8S)-5-fluoro-8-hydroxy-N-(2-phenoxyethyl)-5,6,7,8-tetrahydroquinoline-5-carboxamide], the IC50 lay within 1000 to 3000 nM.
Next, `O=C(NCc1c(F)cc(Cl)cc1Cl)[C@@]1(F)CC[C@@H](O)c2ncccc21` [Example 151, (5R,8R)-N-(2,4-dichloro-6-fluorobenzyl)-5-fluoro-8-hydroxy-5,6,7,8-tetrahydroquinoline-5-carboxamide]: < 50 nM; `Cc1cccc(Cl)c1CNC(=O)[C@@]1(F)CC[C@@H](O)c2ncccc21` [Example 160, (5R,8R)-N-(2-chloro-6-methylbenzyl)-5-fluoro-8-hydroxy-5,6,7,8-tetrahydroquinoline-5-carboxamide]: 101 to 300 nM; `O=C(NCc1ccc(F)cc1F)[C@@]1(F)CC[C@@H](O)c2ncccc21` [Example 140, (5R,8R)-N-(2,4-difluorobenzyl)-5-fluoro-8-hydroxy-5,6,7,8-tetrahydroquinoline-5-carboxamide]: 301 to 1000 nM.
`O=C(NCc1c(Cl)cc(C(F)(F)F)cc1Cl)[C@@]1(F)CC[C@H](O)c2ncccc21` [Example 112, (5R,8S)-N-(2,6-dichloro-4-(trifluoromethyl)benzyl)-5-fluoro-8-hydroxy-5,6,7,8-tetrahydroquinoline-5-carboxamide] showed an IC50 of 101 to 300 nM.
Then `Cc1cnc2c(c1)[C@](F)(C(=O)NCc1ccc(Cl)cc1Cl)CC[C@@H]2O` [Example 243, (5S,8S)-N-(2,4-dichlorobenzyl)-5-fluoro-8-hydroxy-3-methyl-5,6,7,8-tetrahydroquinoline-5-carboxamide], with 301 to 1000 nM; and `O=C(NCc1cc(Cl)ccc1Cl)[C@]1(F)CC[C@H](O)c2ncccc21` [Example 173, (5S,8S)-N-(2,5-dichlorobenzyl)-5-fluoro-8-hydroxy-5,6,7,8-tetrahydroquinoline-5-carboxamide], with 50 to 100 nM.
